ChEMBL document CHEMBL1201862, “PubChem BioAssay data set” (2004)
Calls of active or inactive are those of the source.

Experiments:
[1] = target: T1, Endoribonuclease toxin MazF (Escherichia coli K-12, UniProt P0AE70); assay: MazF toxin RNase activators, dose response, biochemical, fluorescence, single-stranded RNA substrate, uHTS hits (AID 588481); type: functional
T1 sequence (P0AE70 whole entry): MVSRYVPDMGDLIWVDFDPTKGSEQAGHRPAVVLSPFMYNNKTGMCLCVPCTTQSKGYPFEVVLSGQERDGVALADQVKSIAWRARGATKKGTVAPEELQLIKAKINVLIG

[2] = target: T1, Endoribonuclease toxin MazF; assay: fluorescent RNA oligo signal without MazF, dose response, counter-screen for MazEF activator project, biochemical, fluorescence, single-stranded RNase substrate (AID 588502); type: functional
[3] = ADAM10 inhibitors, peptide cleavage, dose response, biochemical, QFRET (AID 743254);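 note: ADAM10 enzyme with the DM2 quenched FRET peptide as substrate; EDANS fluorescence gain as the protease cuts the substrate; inhibitor potency against ADAM10 proteolytic activity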
[4] = target: Disintegrin and metalloproteinase domain-containing protein 17 (Homo sapiens, UniProt P78536); assay: ADAM17 protease inhibitors, dose response, counter-screen for ADAM10 exosite inhibitor project, biochemical, quenched FRET substrate (AID 743253)
Chain of Disintegrin and metalloproteinase domain-containing protein 17 (P78536 whole entry, the tested form may be a part): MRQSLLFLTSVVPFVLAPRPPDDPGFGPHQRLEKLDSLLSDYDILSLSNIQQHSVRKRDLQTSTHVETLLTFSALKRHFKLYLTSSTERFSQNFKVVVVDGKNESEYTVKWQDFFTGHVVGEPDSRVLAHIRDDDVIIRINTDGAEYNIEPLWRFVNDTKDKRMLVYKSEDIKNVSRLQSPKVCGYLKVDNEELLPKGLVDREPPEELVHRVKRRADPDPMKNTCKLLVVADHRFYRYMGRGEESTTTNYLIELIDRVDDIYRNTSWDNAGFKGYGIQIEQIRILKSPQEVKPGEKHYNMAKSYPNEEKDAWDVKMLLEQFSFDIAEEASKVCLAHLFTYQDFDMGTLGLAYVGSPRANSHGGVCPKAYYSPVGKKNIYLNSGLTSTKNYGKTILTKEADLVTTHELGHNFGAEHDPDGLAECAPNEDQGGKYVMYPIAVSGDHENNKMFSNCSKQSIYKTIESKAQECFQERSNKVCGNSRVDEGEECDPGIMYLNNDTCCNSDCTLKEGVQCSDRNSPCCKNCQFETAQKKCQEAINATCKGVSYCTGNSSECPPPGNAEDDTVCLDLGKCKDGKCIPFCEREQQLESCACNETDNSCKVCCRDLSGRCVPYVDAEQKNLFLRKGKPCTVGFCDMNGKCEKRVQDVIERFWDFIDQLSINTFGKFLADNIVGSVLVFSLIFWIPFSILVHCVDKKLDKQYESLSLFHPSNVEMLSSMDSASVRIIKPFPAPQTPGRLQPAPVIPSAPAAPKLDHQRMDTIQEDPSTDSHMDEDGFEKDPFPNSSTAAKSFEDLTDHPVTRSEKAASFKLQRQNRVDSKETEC

[5] = Luminescence Cell-Based Dose Retest to Confirm Inhibitors of Cancer Stem Cells. [Related pubchem assays (depositor defined):AID2717, AID2721]; type: functional; conditions: Homo sapiens
[6] = target: T2, Heat shock factor protein 1 (Mus musculus, UniProt P38532); assay: HSF1 potentiators in luciferase reporter cells, confirmation, cell-based, NIH3T3, luminescence, dose retest (AID 435004); type: functional;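 note: stress induced by proteasome inhibitor MG132 added 30 min after compound; luciferase reporter driven by HSF1 response element in NIH3T3 cells; actives raise luminescence as potentiators of the MG132 stress response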
T2 sequence (P38532 whole entry): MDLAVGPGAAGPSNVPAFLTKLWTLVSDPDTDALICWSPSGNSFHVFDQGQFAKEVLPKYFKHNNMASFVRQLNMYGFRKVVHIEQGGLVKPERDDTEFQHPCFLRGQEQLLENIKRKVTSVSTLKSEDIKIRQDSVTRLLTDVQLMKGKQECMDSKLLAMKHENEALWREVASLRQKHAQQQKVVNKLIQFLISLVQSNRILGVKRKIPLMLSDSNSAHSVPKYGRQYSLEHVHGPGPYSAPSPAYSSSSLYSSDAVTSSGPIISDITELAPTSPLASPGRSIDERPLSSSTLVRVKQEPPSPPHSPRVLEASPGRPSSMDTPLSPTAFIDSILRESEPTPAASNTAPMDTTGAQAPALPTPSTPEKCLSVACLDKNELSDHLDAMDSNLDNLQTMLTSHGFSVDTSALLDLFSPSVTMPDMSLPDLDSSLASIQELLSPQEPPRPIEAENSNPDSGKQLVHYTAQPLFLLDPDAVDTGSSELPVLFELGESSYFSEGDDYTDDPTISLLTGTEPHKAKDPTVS

[7] = target: NAD-dependent protein deacylase sirtuin-5, mitochondrial (Homo sapiens, UniProt Q9NXA8); assay: SIRT5 desuccinylase inhibitors, dose response, biochemical, fluorescence imaging, cherry-pick, set 5 (AID 720591);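 note: desuccinylation of succinyl peptide AMC substrate read as fluorescence after trypsin release; potency of inhibitors that lower fluorescence and may act on trypsin instead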
Chain of NAD-dependent protein deacylase sirtuin-5, mitochondrial (Q9NXA8 whole entry): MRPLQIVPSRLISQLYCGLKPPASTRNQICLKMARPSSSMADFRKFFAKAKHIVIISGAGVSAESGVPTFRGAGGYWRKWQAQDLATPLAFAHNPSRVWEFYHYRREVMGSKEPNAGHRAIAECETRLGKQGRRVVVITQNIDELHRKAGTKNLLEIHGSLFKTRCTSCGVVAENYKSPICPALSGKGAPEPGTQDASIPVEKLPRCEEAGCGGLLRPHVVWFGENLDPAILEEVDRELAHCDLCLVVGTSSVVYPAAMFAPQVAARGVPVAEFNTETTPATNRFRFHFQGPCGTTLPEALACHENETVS

[8] = target: T3, Mitochondrial peptide methionine sulfoxide reductase (Bos taurus, UniProt P54149); assay: Absorbance-based biochemical high throughput dose response assay for activators of Methionine sulfoxide reductase A (MsrA).; type: functional
T3 sequence (P54149 whole entry): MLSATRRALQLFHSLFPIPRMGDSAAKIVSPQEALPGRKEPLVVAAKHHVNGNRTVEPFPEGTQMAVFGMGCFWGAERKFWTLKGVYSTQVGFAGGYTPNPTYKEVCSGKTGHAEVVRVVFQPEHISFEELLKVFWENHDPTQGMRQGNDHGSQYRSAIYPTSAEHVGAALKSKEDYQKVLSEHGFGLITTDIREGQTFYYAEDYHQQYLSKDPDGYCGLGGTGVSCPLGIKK

[9] = target: T4, Ubiquitin-conjugating enzyme E2 N (Homo sapiens, UniProt P61088); type: functional;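 note: Dose-response confirmation in a TR-FRET assay detecting UBC13-driven polyubiquitin chain formation, inhibition measured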
T4 sequence (P61088 whole entry): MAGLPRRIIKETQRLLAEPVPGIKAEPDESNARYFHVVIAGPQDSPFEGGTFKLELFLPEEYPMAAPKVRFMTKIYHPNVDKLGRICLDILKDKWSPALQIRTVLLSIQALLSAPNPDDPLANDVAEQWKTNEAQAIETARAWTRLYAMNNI

[10] = target: T5, DNA repair and recombination protein RAD54-like (Homo sapiens, UniProt Q92698); assay: inhibitors of human RAD54 branch migration, confirmation, biochemical, fluorescence, cherry-picked samples, dose series (AID 651657); type: functional
T5 sequence (Q92698 whole entry): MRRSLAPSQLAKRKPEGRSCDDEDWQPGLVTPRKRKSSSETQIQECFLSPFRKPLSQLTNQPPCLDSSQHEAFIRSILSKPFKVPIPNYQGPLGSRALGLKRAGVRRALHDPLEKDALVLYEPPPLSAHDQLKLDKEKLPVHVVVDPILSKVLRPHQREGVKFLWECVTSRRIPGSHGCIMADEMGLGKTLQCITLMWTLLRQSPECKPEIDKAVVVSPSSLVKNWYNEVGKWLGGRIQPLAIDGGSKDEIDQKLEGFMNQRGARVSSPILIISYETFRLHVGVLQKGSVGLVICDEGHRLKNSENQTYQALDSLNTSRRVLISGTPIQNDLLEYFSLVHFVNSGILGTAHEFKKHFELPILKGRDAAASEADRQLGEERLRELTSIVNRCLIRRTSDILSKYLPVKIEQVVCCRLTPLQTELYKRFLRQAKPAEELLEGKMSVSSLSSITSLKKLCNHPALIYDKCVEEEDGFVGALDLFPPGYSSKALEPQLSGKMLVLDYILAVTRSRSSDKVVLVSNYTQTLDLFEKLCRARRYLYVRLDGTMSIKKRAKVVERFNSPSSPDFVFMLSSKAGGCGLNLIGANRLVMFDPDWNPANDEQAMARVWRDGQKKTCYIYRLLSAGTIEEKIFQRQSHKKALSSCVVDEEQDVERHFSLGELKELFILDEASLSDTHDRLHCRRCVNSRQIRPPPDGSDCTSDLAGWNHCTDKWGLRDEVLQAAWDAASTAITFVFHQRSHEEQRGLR

[11] = inhibitors of firefly luciferase expression or activity, dose response, H4 neuroglioma cells, luminescence (AID 1990); type: functional, cell-based
[12] = target: T2, Heat shock factor protein 1; assay: inhibition of MG132-induced HSE-luciferase signal, confirmation, cell-based, NIH3T3, luminescence, dose retest (AID 2382); type: functional;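 note: NIH3T3 fibroblasts with HSF1-driven luciferase reporter stressed by proteasome inhibitor MG132; luminescence from HSF1-driven luciferase expression after 8 hours of MG132 stress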
[13] = target: T6, Microphthalmia-associated transcription factor (Homo sapiens, UniProt O75030); assay: TRPM1 promoter luciferase signal decrease, dose response, MITF inhibitor project, cell-based, SK-MEL-5, cherry-picked, set 3 (AID 493073); type: functional
T6 sequence (O75030 whole entry): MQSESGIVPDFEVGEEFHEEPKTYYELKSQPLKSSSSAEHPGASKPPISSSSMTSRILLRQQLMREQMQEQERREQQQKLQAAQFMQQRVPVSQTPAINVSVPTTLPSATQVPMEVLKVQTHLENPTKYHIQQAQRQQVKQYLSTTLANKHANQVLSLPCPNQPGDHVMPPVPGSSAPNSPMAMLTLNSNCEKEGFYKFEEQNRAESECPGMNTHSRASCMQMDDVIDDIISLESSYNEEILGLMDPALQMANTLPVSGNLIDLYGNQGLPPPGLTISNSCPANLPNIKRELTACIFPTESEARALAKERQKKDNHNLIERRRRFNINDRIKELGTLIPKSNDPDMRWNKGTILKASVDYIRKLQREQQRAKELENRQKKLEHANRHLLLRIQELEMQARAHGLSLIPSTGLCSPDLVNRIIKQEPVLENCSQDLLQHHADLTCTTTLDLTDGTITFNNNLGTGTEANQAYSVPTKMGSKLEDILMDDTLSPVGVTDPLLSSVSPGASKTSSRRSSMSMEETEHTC

[14] = target: Photoreceptor-specific nuclear receptor (Homo sapiens, UniProt Q9Y5X4); type: functional, cell-based;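 note: CHO-S cells with Gal4-NCOR and VP16-NR2E3 two-hybrid luciferase reporter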
Chain of Photoreceptor-specific nuclear receptor (Q9Y5X4 whole entry, the tested form may be a part): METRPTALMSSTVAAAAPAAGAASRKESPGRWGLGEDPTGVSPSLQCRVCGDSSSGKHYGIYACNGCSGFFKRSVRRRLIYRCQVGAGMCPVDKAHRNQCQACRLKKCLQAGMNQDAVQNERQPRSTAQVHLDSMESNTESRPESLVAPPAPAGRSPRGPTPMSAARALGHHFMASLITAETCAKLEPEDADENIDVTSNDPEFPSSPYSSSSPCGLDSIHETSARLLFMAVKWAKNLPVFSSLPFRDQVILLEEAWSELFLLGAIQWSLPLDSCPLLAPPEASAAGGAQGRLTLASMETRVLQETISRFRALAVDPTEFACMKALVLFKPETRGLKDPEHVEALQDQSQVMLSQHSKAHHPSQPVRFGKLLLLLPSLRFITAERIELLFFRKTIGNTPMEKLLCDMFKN

[15] = A549 cell cytotoxicity, dose response, cytotoxicity control, plate reader, cherry-pick, antagonist series (AID 743412); type: functional, cell-based
[16] = LGR2 antagonists, dose response, cell-based, HEK293, CRE-luciferase reporter, cherry pick, set 2 (AID 743343); type: functional;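 note: transfected cells were stimulated with diluted bursicon conditioned medium after compound addition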
[17] = MC4R antagonists, dose response, counter-screen for LGR2 antagonist project, cell-based, plate reader, cherry pick (AID 743444); type: functional;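 note: transfected HEK 293 cells stimulated with alpha-MSH peptide; potency of inhibitors of the alpha-MSH evoked signal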
[18] = M. tuberculosis H37Rv growth inhibitors, H37Rv strain (AID 1626); type: functional
[19] = target: T7, Polyadenylate-binding protein 1 (Homo sapiens, UniProt P11940); assay: PABP1 MLLE–PAM2 interaction inhibitors, dose response, miRNA deadenylation inhibitor project, biochemical, fluorescence polarization, Cy5-PAM2 peptide, secondary (AID 602260); type: functional; conditions: read-out: IC50_Mean
T7 sequence (P11940 whole entry): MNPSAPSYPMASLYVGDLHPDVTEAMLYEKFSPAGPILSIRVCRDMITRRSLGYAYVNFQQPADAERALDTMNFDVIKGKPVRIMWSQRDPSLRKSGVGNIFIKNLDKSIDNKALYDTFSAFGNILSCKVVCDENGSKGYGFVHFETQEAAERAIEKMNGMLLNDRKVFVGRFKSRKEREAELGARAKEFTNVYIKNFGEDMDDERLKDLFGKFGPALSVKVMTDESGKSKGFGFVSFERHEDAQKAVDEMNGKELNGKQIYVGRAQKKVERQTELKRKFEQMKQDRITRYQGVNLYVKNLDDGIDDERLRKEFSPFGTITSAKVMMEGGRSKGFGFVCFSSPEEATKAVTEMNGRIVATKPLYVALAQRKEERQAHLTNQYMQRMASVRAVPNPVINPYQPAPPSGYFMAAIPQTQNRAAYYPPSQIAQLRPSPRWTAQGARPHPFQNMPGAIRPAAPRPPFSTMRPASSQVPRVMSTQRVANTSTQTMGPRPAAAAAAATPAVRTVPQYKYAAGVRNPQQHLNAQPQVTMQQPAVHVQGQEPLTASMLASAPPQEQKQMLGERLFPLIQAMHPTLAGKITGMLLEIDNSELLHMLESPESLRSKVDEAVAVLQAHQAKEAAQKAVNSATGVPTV

[20] = target: T7, Polyadenylate-binding protein 1; assay: PABP1 MLLE–PAM2 binding inhibitor potency, dose response, biochemical, fluorescence polarization, FITC-PAM2 peptide (AID 602259); type: functional; conditions: read-out: IC50_Mean
[21] = growth suppression of PTEN-null colon cells, dose response, cell-based, HCT116 PTEN knockout (AID 1047); type: functional;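 note: HCT116 colon tumor cells with PTEN knocked out; cells exposed to compound for 60 hours before readout; potency for loss of cell viability measured by luminescence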
[22] = growth suppression of beta-catenin-knockout colon cells, dose response, cell-based, HCT116, human colon tumor (AID 1045); type: functional;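 note: HCT116 colon tumor cells with beta catenin knocked out; cells exposed to compound for 60 hours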
Vero = assay: cells; type: functional; conditions: Chlorocebus sabaeus
[23] = inhibitors of intracellular T. cruzi replication, confirmation, NIH3T3 host cells, beta-gal luminescence (AID 2044); type: functional, cell-based;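 note: intracellular parasites grown in NIH/3T3 mouse fibroblasts as host cells; luminescent beta-galactosidase reporter signal from transgenic T. cruzi replicating inside host cells; inhibitors lower the luminescence signal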
[24] = cytotoxicity toward NIH3T3 fibroblasts, dose response, counter-screen, cell-based, ATP luminescence, mouse fibroblasts (AID 2010); type: functional;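 note: cells exposed to compound for about 90 hours before reading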
[25] = HepG2 cell cytotoxicity, dose response, cytotoxicity control, plate reader, cherry-pick, antagonist series (AID 743416); type: functional, cell-based
[26] = HEK293 cell cytotoxicity, dose response, cytotoxicity control, plate reader, cherry-picked samples (AID 743446); type: functional, cell-based
[27] = HEp-2 cell cytotoxicity, dose response, cytotoxicity control for RSV inhibitor project, HTS (AID 2410); type: functional; conditions: human respiratory syncytial virus

## COc1ccc(-c2cc(C)no2)cc1S(=O)(=O)N1CCOc2ccc(C)cc21
[1]
  EC50: > 99 µM (inactive)
[2]
  EC50: > 99 µM (inactive)

## CC(O)(c1ccccc1)c1nc(-c2cc3ccccc3o2)cs1 (stereo unspecified)
[3]
  IC50: 17.2 µM (inactive)
[4]
  IC50: > 69.5 µM (inactive)

## Cc1ccccc1/N=C1\SC(CC(=O)Nc2ccc3ccccc3c2)C(=O)N1Cc1ccccn1 (stereo unspecified)
[5]
  AC50: 4.16 µM (active)
[6]
  EC50: > 120 µM (inactive)
[3]
  IC50: 12.5 µM (inactive)
[4]
  IC50: > 69.5 µM (inactive)

## COc1cccc(NC(=O)c2ccc(-c3ccc([N+](=O)[O-])cc3)o2)c1
[1]
  EC50: > 99 µM (inactive)
[2]
  EC50: > 99 µM (inactive)

## CC(=O)N1c2ccc(S(=O)(=O)NCCC(=O)NC3CCC(C)CC3)cc2CC1C (stereo unspecified)
[7]
  AC50: > 30 µM (inactive)

## CCCCC(=O)NNC(=S)NC(=O)c1ccc([N+](=O)[O-])cc1
[8]
  EC50: > 104 µM (inactive)

## CNC(=O)CSc1nnc(-c2ccco2)n1-c1cccc(C)c1
[7]
  AC50: > 30 µM (inactive)

## CCCCN(CC)CCCNC(=O)c1cc2c(=O)n(C)c3ccccc3c2n1C
[9]
  IC50: > 20 µM (inactive)
[10]
  AC50: 22.2 µM (active)

## Cc1cc(C(=O)CSc2nnc3ccccn23)c(C)n1-c1ccccc1
[11]
  EC50: 0.844 µM (active)
[12]
  EC50: < 0.16 µM (active)
[13]
  AC50: 2.08 µM (active)
[14]
  IC50: 14.4 µM (inactive)
[15]
  AC50: > 52 µM (inactive)
[16]
  AC50: 1.06 µM (active)
[17]
  AC50: 1.39 µM (active)

## Oc1ccc(C[C@H]2CNC(=S)N2C[C@H]2CCCN2C[C@H](Cc2ccccc2)N2C[C@H](Cc3ccc(O)cc3)N(CCc3ccccc3)C2=S)cc1
[3]
  IC50: 15.1 µM (inactive)
[4]
  IC50: > 69.5 µM (inactive)

## CCOC(=O)c1cc(-c2cc(OC)c(OC)c(OC)c2)nc2c1c(=O)[nH]c(=O)n2Cc1ccccc1
[7]
  AC50: > 30 µM (inactive)

## CCc1ccc(NC(=O)CSc2nnc(-c3ccccn3)n2C)cc1
[18]
  IC50: > 100 µM (active)

## O=C(c1cc(S(=O)(=O)N2CCN(c3ccccc3)CC2)ccc1Cl)N1CCCCCCC1
[14]
  IC50: 5.5 µM (active)

## COCc1cc(=O)[nH]c(=S)[nH]1
[19]
  IC50: > 66 µM (inactive)
[8]
  EC50: > 104 µM (inactive)
[20]
  IC50: > 66 µM (inactive)

## CCOC(=O)C1=C(C)N=c2s/c(=C/c3ccccc3)c(=O)n2C1c1ccc(OC)c(OC)c1 (stereo unspecified)
[1]
  EC50: > 99 µM (inactive)
[2]
  EC50: > 99 µM (inactive)

## Cc1ccc(-c2nc(N(C)C3CCN(C)CC3)c3ccccc3n2)cc1
[21]
  EC50: 6.77 µM (active)
[22]
  EC50: 6.51 µM (active)
Vero
  CC50: 16.3 µM (active)
[10]
  AC50: 3.93 µM (active)

## CCCN(CC1CC1)C(=O)COC(=O)c1ccc2c(c1)C(=O)N(c1ccc(OCC)cc1)C2=O
[18]
  IC50: > 100 µM (active)

## O=S(=O)(CC(CN1CCCCC1)N1CCCCC1)c1ccc2ccccc2c1 (stereo unspecified)
[23]
  EC50: 2.65 µM (active)
[24]
  EC50: > 60 µM (not active)
[6]
  EC50: 13.9 µM (active)
[13]
  AC50: 12.5 µM (active)
[15]
  AC50: 11.6 µM (active)
[25]
  AC50: 14.6 µM (active)
[16]
  AC50: 22.3 µM (active)
[17]
  AC50: 14 µM (active)
[26]
  AC50: 18.8 µM (active)

## COc1ccc(/C=C/C(=O)c2ccc(C)c([N+](=O)[O-])c2)cc1O
[27]
  CC50: 15.8 µM (active)
[18]
  IC50: > 100 µM (active)
[21]
  EC50: 5.39 µM (active)
[22]
  EC50: 4.65 µM (active)

## COc1ccc(CCCNC(=O)C2CCC(=O)N(Cc3ccc(Cl)cc3)C2)cc1 (stereo unspecified)
[7]
  AC50: > 30 µM (inactive)

## O=C(c1ccc(CSc2nc3cc[nH]cc-3n2)cc1)N1CCN(c2cccc(Cl)c2)CC1
[23]
  EC50: 1.39 µM (active)
[24]
  EC50: > 60 µM (not active)
[15]
  AC50: 38 µM (active)
[25]
  AC50: 32.6 µM (active)
[26]
  AC50: 50.4 µM (active)
